Measured values from US20080064727A1, “Crystalline forms of tiagabine hydrochloride” (Cephalon, Inc., priority 2006, published 2008).

Tests used:
Assay type in all cases: physicochemical
[1] = Solid-form stability on storage, resulting form by XRPD analysis
Description: (§1) X-ray powder diffraction (XRPD) analyses were performed using the following instruments & methods:
(§2) A. Shimadzu XRD-6000 X-ray powder diffractometer using Cu Kα radiation. The instrument was equipped with a long fine focus X-ray tube. The tube voltage and amperage were set to 40 kV and 40 mA, respectively. The divergence and scattering slits were set at 1° and the receiving slit was set at 0.15 mm. Diffracted radiation was detected by a NaI scintillation detector. A θ-2θ continuous scan at 3°/min (0.4 sec/0.02° step) from 2.5 to 40° 2θ was used. A silicon standard was analyzed to check the instrument alignment. Data were collected and analyzed using XRD-6000 v. 4.1. Samples were prepared for analysis by placing them in a sample holder.
(§3) B. Inel XRG-3000 diffractometer, equipped with a CPS (Curved Position Sensitive) detector with a 2 Orange of 120°. Real time data were collected using Cu—Kα radiation starting at approximately 4° 2θ at a resolution of 0.03° 2θ. The tube voltage and amperage were set to 40 kV and 30 mA, respectively. The monochromator slit was set at 5 mm by 80 μm or 160 μm. […] Samples were prepared for analysis by packing them into thin-walled glass capillaries. Each capillary was mounted onto a goniometer head that is motorized to permit spinning of the capillary during data acquisition. The acquisition time was between 5 to 10 min. Instrument calibration was performed using a silicon reference standard.
(§4) D. Bruker D-8 Discover diffractometer and Bruker's General Area Diffraction Detection System (GADDS, v. 4.1.20). An incident beam of Cu—Kα radiation was produced using a fine-focus tube (40 kV, 40 mA), a Gobel mirror, and a 0.5 mm double-pinhole collimator. The samples were positioned for analysis by securing the well plate to a translation stage and moving each sample to intersect the incident beam. Alternatively, the sample was packed between 3-micron thick films to form a portable disc-shaped specimen, and the specimen was loaded in a holder secured to a translation stage. The samples were analyzed using a transmission geometry. The incident beam was scanned and rastered over the sample during the analysis to optimize orientation statistics. A beam-stop was used to minimize air scatter from the incident beam at low angles. Diffraction patterns were collected using a Hi-Star area detector located 15 cm from the sample and processed using GADDS. The intensity in the GADDS image of the diffraction pattern was integrated using a step size of 0.04° 2θ. The integrated patterns display diffraction intensity as a function of 2θ. Prior to the analysis a silicon standard was analyzed to verify the Si 111 peak position.
E. Peak Picking Methods. Any XRPD files generated from Inel or Bruker XRPD instruments were converted to Shimadzu .raw file using File Monkey version 3.0.4. The Shimadzu .raw file was processed by the Shimadzu XRD-6000 version 4.1 software to automatically find peak positions. The “peak position” means the maximum intensity of a peaked intensity profile. The following processes were used with the Shimadzu XRD-6000 “Basic Process” version 2.6 algorithm: • Smoothing was done on all patterns. • The background was subtracted to find the net, relative intensity of the peaks. • A peak from Cu K alpha2 (1.5444 Å) wavelength was subtracted from the peak generated by Cu K alpha1 (1.5406 Å) peak at 50% intensity for all patterns. Differential Scanning Calorimetry

[2] = Solid-form stability on heating, resulting form by XRPD analysis; conditions: heated five (5) minutes at about 160° C. in an argon atmosphere, lyophilized sample (Preparation Method 3), hydrochloride
Description: as §1, §2, §3
C. Shimadzu XRD-6000 X-ray powder diffractometer equipped with an Anton Paar HTK 1200 high temperature stage (Variable-temperature XRPD (VT-XRPD)). The sample was packed in a ceramic holder and analyzed form 2.5 to 40° 2θ at 3°/min (0.4 sec/0.02° step). The heating rate was 10° C./min. A silicon standard was analyzed to check the instrument alignment. Temperature calibration was performed using vanillin and sulfapyridine USP melting point standards. Data were collected and analyzed using XPD-6000 v.4.1. The system was kept under a purge of nitrogen during the analysis.
as §4
E. Peak Picking Methods. Any XRPD files generated from Inel or Bruker XRPD instruments were converted to Shimadzu .raw file using File Monkey version 3.0.4. The Shimadzu .raw file was processed by the Shimadzu XRD-6000 version 4.1 software to automatically find peak positions. The “peak position” means the maximum intensity of a peaked intensity profile. The following processes were used with the Shimadzu XRD-6000 “Basic Process” version 2.6 algorithm: • Smoothing was done on all patterns. • The background was subtracted to find the net, relative intensity of the peaks. • A peak from Cu K alpha2 (1.5444 Å) wavelength was subtracted from the peak generated by Cu K alpha1 (1.5406 Å) peak at 50% intensity for all patterns. […]

[3] = Moisture sorption/desorption (VTI SGA-100 moisture balance)
Description: Moisture sorption/desorption data were collected on a VTI SGA-100 moisture balance system. For sorption isotherms, a sorption range of 5 to 95% relative humidity (RH) and a desorption range of 95 to 5% RH in 10% RH increments were used for analysis. The samples were not dried prior to analysis. Equilibrium criteria used for analysis were less than 0.0100% weight change in 5 minutes with a maximum equilibration time of 3 hours if the weight criterion was not met. Data were not corrected for the initial moisture content of the samples.

[4] = Approximate solubility in various solvents by aliquot addition, visual dissolution; conditions: thermodynamic from solid, amorphous obtained by Preparation Method 3
Description: Dissolution was determined visually. The actual solubilities may be higher than reported due to the use of excess solvent (e.g., because of slow dissolution rates).

## Cc1ccsc1C(=CCCN1CCC[C@@H](C(=O)O)C1)c1sccc1C.Cl [tiagabine HCl amorphous, tiagabine hydrochloride]
[1]; about 5° C., 11% relative humidity
  Time stable when stored: at least 5 days
[1]; about 5° C., 43% relative humidity
  Time stable when stored: ≥ 8 days
[1]; room temperature, 33% relative humidity
  Time stable when stored: at least 22 days
[1]; room temperature, 58% relative humidity
  Time stable when stored: at least 22 days
[1]; stored 5 days, about 5° C., about 11% relative humidity, lyophilized sample (Preparation Method 3)
  Form indicated by XRPD analysis after storage: tiagabine HCl amorphous
[1]; stored 8 days, about 5° C., about 43% relative humidity, lyophilized sample (Preparation Method 3)
  Form indicated by XRPD analysis after storage: tiagabine HCl amorphous
[1]; stored 22 days, room temperature, about 33% relative humidity, crash-cooled sample (Preparation Method 1)
  Form indicated by XRPD analysis after storage: tiagabine HCl amorphous
[1]; stored 22 days, room temperature, about 58% relative humidity, crash-cooled sample (Preparation Method 1)
  Form indicated by XRPD analysis after storage: tiagabine HCl amorphous
[1]; stored 22 days, room temperature, about 75% relative humidity, crash-cooled sample (Preparation Method 1), hydrochloride
  Form indicated by XRPD analysis after storage: a mixture of tiagabine hydrochloride Forms A and B
[1]; stored 22 days, room temperature, about 75% relative humidity, crash-cooled sample (Preparation Method 1), listed as Tiagabine hydrochloride amorphous, hydrochloride
  Form indicated by XRPD analysis after storage: a mixture of Forms A and B
[1]; stored 22 days, room temperature, about 84% relative humidity, crash-cooled sample (Preparation Method 1), hydrochloride
  Form indicated by XRPD analysis after storage: a mixture of tiagabine hydrochloride Forms A and B
[1]; stored 22 days, room temperature, about 84% relative humidity, crash-cooled sample (Preparation Method 1), listed as Tiagabine hydrochloride amorphous, hydrochloride
  Form indicated by XRPD analysis after storage: a mixture of Forms A and B
[2]
  Form indicated by XRPD analysis after heating: tiagabine HCl Form B
[2]; listed as Tiagabine hydrochloride amorphous
  Form indicated by XRPD analysis after heating: tiagabine hydrochloride anhydrous
[3]; at 95% relative humidity (RH)
  Weight gain upon sorption: 12.1%
[3]; from 95% to 5% RH
  Weight loss upon desorption: 9.5%
[3]; sample after sorption 5 to 95% RH and desorption 95 to 5% RH
  Forms present by XRPD analysis after moisture sorption/desorption: tiagabine HCl Forms A and B
[4]; aqueous with cosolvent or surfactant or cyclodextrin, solvent: 2-propanol/water (1:1)
  solubility: > 129 mg/mL
[4]; organic solvent or mixture, solvent: 1,4 dioxane/water (3:1)
  solubility: > 359 mg/mL
[4]; organic solvent or mixture, solvent: Acetonitrile
  solubility: < 26 mg/mL
[4]; organic solvent or mixture, solvent: Benzonitrile
  solubility: > 448 mg/mL
[4]; organic solvent or mixture, solvent: Chloroform
  solubility: > 582 mg/mL
[4]; organic solvent or mixture, solvent: Dichloromethane
  solubility: < 34 mg/mL
[4]; organic solvent or mixture, solvent: Dioxane
  solubility: > 542 mg/mL
[4]; organic solvent or mixture, solvent: Tetrahydrofuran
  solubility: > 562 mg/mL
[4]; organic solvent or mixture, solvent: Toluene
  solubility: < 43 mg/mL
[4]; organic solvent or mixture, solvent: Trifluoroethanol
  solubility: > 713 mg/mL
[4]; organic solvent or mixture, solvent: ethanol/water (10:1)
  solubility: > 400 mg/mL
[4]; organic solvent or mixture, solvent: ethyl acetate (wet)
  solubility: > 1190 mg/mL
[4]; organic solvent or mixture, solvent: ethyl acetate
  solubility: < 24 mg/mL
[4]; organic solvent or mixture, solvent: methyl ethyl ketone
  solubility: > 546 mg/mL
[4]; organic solvent or mixture, solvent: methyl-tert-butyl ether
  solubility: < 14 mg/mL
[4]; water, solvent: Water
  solubility: > 490 mg/mL
